Reference: US20120121509A1, “VITAL FLUOROCHROME CONJUGATES AND METHODS OF USE” (THE GENERAL HOSPITAL CORPORATION, priority 2009, published 2012)

Assays:
[1] = tested on: necrotic cardiomyocytes of infarcted myocardium; test: In vivo MR imaging of ischemia induced necrosis, left coronary artery ligation; conditions: mouse
Method: For in vivo MR studies, we employed a model of prolonged ischemia, obtained when the left coronary artery of a beating mouse heart was ligated for 18 hours. The ligation and procedure is similar to our previously described method (Sosnovik, D. E. et al., Magn. Reson. Med., 54:718-24, 2005) except the duration is for 18 hours. […] GadoTO was injected (18 hours post ligation) and imaged (21 h). […] Gd-DTPA washed in and out of damaged myocardium within 1 hour.

[2] = tested on: Jurkat cells; test: In vitro T1 weighted MRI / FRI of packed cell phantoms of camptothecin treated Jurkat cells; type: cell-based; conditions: for uptake by CPT treated cells by MRI: T1 weighted MRI, FRI and relaxometry, CPT treated versus non-CPT treated Jurkat cells
Method: The interaction of GadoTO with necrotic cells is shown schematically in FIG. 5A. GadoTO is excluded by vital cells. Prolonged ischemia or a 48 hour exposure to CPT induces necrosis, which causes GadoTO to enter cells and intercalate with double stranded nuclear DNA. […] Effects on cellular T1 were confirmed by relaxometry studies using cell suspensions.

[3] = tested on: infarcted myocardium; test: MR imaging of post myocardial infarction phases (age of infarction); type: in vivo; conditions: mouse
From the text: An additional feature of the invention is an imaging method to determine the age of a myocardial infarction (MI), i.e., the time since the occlusion began. Patients can present with symptoms of variable intensity and duration that may or may indicate an infarction. Current techniques can define regions of non-functional myocardium, but cannot define the time of infarction. With developing (“young”) infarctions, treatments to limit or reverse the affected area are indicated, while with “old” infarctions such treatments are futile. In this method a vital fluorochrome conjugate is injected intravenously and MRI or PET or SPECT are used to measure the vital fluorochrome conjugates uptake in an infracted area.
FIGS. 6A and 6B show an example of a beating mouse heart injected with GadoTO imaged during phase 2 (18 hours) (FIG. 6A) and phase 4 (8 days) (FIG. 6B) of the post MI reaction phases. […] GadoTO can thus be used to specifically image acutely necrotic myocardium/tissue.

[4] = tested on: Jurkat T cells; test: Single channel FACS, GadoTO versus propidium iodide; type: cell-based
Method: Experimental Details for the Dual Wavelength FACS and Single Channel FACS: Cell culture: All experiments described used Jurkat T cells (Clone E6-1, ATCC #TIB-152). Cells were grown in RPMI 1640 medium (ThermoFisher Scientific, Hampton, N.H.) with 10% fetal bovine serum (Valley Biomedical, Winchester, Va.), 1% L-Glutamine (Mediatech, Manassas, Va.), 1% Penycillin-Streptomycin (Mediatech, Manassas, Va.). Media was changed every two or three days. Cells were maintained at 37° C., 5% CO2. Flow cytometry experiments: Cells were treated with camptothecin (CPT, 24 hrs, 10 μM). After removal of the medium, cells were resuspended into 100 μL of binding buffer (10 mM HEPES, 140 mM NaCl, 2.5 mM CaCl2, 1% FBS). Cells were stained at 37° C. for 15 min with 1 μL Annexin-APC (Invitrogen) and 1 μL propidium iodide (BD Pharmingen) or 1 μL of GadoTO (0.1 mM stock solution in binding buffer). Cells were diluted with 200 μL of binding buffer and analyzed by flow cytometry (FACSCalibur, Becton Dickinson). Fluorescence from the APC fluorochrome was measured in FL4, PI in FL3, and GadoTO in FL1. […]

[5] = target: DNA; test: Fluorescence assay: binding of GadoTO to DNA monitored by fluorescence; conditions: GadoTO 2.35 uM, increasing DNA concentrations, emission 510-700 nm; 95% confidence interval 0.149-0.214; read-out: half-maximal concentration (EC50) from fluorescence values
Method: Experimental Details of the Fluorescence Assay: GadoTO at 2.35 uM was employed with increasing concentrations of DNA. Absorption spectra were measured on a Varian Cary 50 Bio UV-Visible spectrophotometer. The absorbance at 511 nm was measured. Fluorescence emission spectra were recorded on a Varian Cary Eclipse fluorescence spectrophometer. Fluorescence intensities were measured between 510 and 700 nm and corrected, when necessary, for matched absorbances at 511 nm. Fluorescence intensities were plotted versus DNA concentrations.
(§1) Results from the Relaxation and Fluorescence Assays: The design of vital fluorochrome conjugates must preserve the essential features of the vital fluorochrome upon which it is based. The verification that a putative vital fluorochrome conjugates (VF-Linker-Reporter) has the properties of the VF upon which its was based is shown in FIGS. 2A, 2B, 3 and 4 which show the results with the vital fluorochrome conjugates known as GadoTO. Since the reporter group of GadoTO is a paramagnetic gadolinium chelate, binding can be ascertained by changes in the water relaxation rates. […] Binding of small GadoTO to the larger DNA slows the molecular motion, increasing the R1 relaxivity and decreasing the solution T1.

[6] = tested on: Jurkat T cells; test: Dual wavelength FACS with Annexin V-APC, camptothecin-treated Jurkat T cells; type: cell-based
Method: Experimental Details for the Dual Wavelength FACS and Single Channel FACS: Cell culture: All experiments described used Jurkat T cells (Clone E6-1, ATCC #TIB-152). Cells were grown in RPMI 1640 medium (ThermoFisher Scientific, Hampton, N.H.) with 10% fetal bovine serum (Valley Biomedical, Winchester, Va.), 1% L-Glutamine (Mediatech, Manassas, Va.), 1% Penycillin-Streptomycin (Mediatech, Manassas, Va.). Media was changed every two or three days. Cells were maintained at 37° C., 5% CO2. Flow cytometry experiments: Cells were treated with camptothecin (CPT, 24 hrs, 10 μM). After removal of the medium, cells were resuspended into 100 μL of binding buffer (10 mM HEPES, 140 mM NaCl, 2.5 mM CaCl2, 1% FBS). Cells were stained at 37° C. for 15 min with 1 μL Annexin-APC (Invitrogen) and 1 μL propidium iodide (BD Pharmingen) or 1 μL of GadoTO (0.1 mM stock solution in binding buffer). Cells were diluted with 200 μL of binding buffer and analyzed by flow cytometry (FACSCalibur, Becton Dickinson). Fluorescence from the APC fluorochrome was measured in FL4, PI in FL3, and GadoTO in FL1.
Results from Dual Wavelength FACS: The exclusion of GadoTO from healthy cells and uptake by necrotic cells by FACS is shown in FIG. 3. […] GadoTO binding necrotic cells were of two intensities (Hi and Lo), indicating two subpopulations of necrotic cells.

[7] = target: plasmid DNA; test: Relaxation assay: binding of GadoTO to plasmid DNA monitored by relaxometry (T1); conditions: GadoTO 1 mM, plasmid DNA 0.025 to 0.3 ug/uL, Bruker minispec; 95% confidence interval 0.078-0.101; read-out: half-maximal concentration (EC50) from T1 values
Method: Experimental Details of the Relaxation Assay: Gadolinium thiazole orange (GadoTO) at 1 mM was employed with increasing concentrations of plasmid DNA (DNA 0.025 to 0.3 ug/uL). Relaxation times were measured on a Bruker minispec at […].
as §1

[8] = cited from earlier work; for Abs (absorption): first figure of Abs/em; for em (emission): second figure of Abs/em

O=C([O-])CN(CCN(CC(=O)[O-])CC(=O)O)CCN(CC(=O)[O-])CC(=O)O.[Gd+3] [Gd-DTPA]
time to wash in and out of damaged myocardium ([1]; damaged myocardium): ≤ 1 h
uptake by CPT treated cells by MRI [2]: did not induce the uptake

Gadolinium thiazole orange [GadoTO]
uptake in infarcted myocardium ([3]; phase 2 (18 hours) post MI): Profound uptake
uptake in infarcted myocardium ([3]; phase 4, injected 8 days after myocardial infarction): no uptake
infarct on GRE image ([1]; injected 18 hours post ligation, imaged 21 h, gradient echo): barely visible infarct
infarct on IR GRE image ([1]; injected 18 hours post ligation, imaged 21 h, inversion recovery GRE): well-defined, bright infarct
binding to cells, single channel FACS ([4]; Jurkat cells with CPT (+CPT), PI compared with GadoTO): two peaks (Lo and Hi) of highly fluorescent cells were seen
binding to cells, single channel FACS ([4]; Jurkat cells without CPT (-CPT)): cells failed to bind GadoTO
EC50 [5]: 179 µM
binding to cells, dual wavelength FACS ([6]; Jurkat T cells after camptothecin (+CPT, 24 hrs, 10 μM), necrotic cells): cells bound both probes
binding to cells, dual wavelength FACS ([6]; Jurkat T cells before camptothecin (-CPT), viable cells): failed to bind
uptake by CPT treated cells by MRI [2]: brighter than non-CPT treated cells
nuclear cell fluorescence emission ([2]; after intercalation with double stranded nuclear DNA of necrotic cells): 533 nm
EC50 [7]: 89 µM

CN1/C(=C/c2cc[n+](CCC[N+](C)(C)C)c3ccccc23)Oc2ccccc21 [YO-PRO]
Abs (absorption) [8]: 491 nm
em (emission) [8]: 509 nm

CN(C)CCCN1C=C\C(=C/C=C/C=C/c2sc3ccccc3[n+]2C)c2ccccc21.I.[I-] [TO-PRO 5]
Abs (absorption) [8]: 745 nm
em (emission) [8]: 770 nm

C[n+]1c(/C=C/C=C2\C=CN(CCC[N+](C)(C)C)c3ccccc32)sc2ccccc21 [TO-PRO 3]
Abs (absorption) [8]: 612 nm
em (emission) [8]: 631 nm

CCCN(CCCN(C)C)C1=C/C(=C\c2sc3ccccc3[n+]2C)c2ccccc2N1c1ccccc1 [Sybr Green]
Abs (absorption) [8]: 490 nm
em (emission) [8]: 520 nm

CN1/C(=C/C=C/C2C=CN(CCC[N+](C)(C)C)c3ccccc32)Oc2ccccc21 (centres unmarked) [YO-PRO 3]
Abs (absorption) [8]: 612 nm
em (emission) [8]: 631 nm

CN1/C(=C/c2cc[n+](CCC[N+](C)(C)C)c3ccccc23)Sc2ccccc21 [TO-PRO 1]
Abs (absorption) [8]: 515 nm
em (emission) [8]: 531 nm
